Drawing on ChEMBL document CHEMBL3808394, “Synthesis and decreasing Aβ content evaluation of arctigenin-4-yl carbamate derivatives” (Bioorg Med Chem Lett, 2016), this text covers inhibition for 31 molecules.

Common to all, as to format: cell-based
In test [1] the target is Amyloid-beta precursor protein (Homo sapiens) (UniProt P05067). In words: Reduction in amyloid beta 40 content (unknown origin) expressed in HEK293 cells expressing APP K595N/M596L Swedish mutant at 20 uM after 24 hrs by ELISA.
Test [2] has the same target. In words: Reduction in amyloid beta 40 content (unknown origin) expressed in HEK293 cells expressing APP K595N/M596L Swedish mutant at 1 uM after 24 hrs by ELISA. (An ELISA detects its analyte on a solid surface through an enzyme-linked reagent.)
For test [3] the target is unchanged. Put plainly: Reduction in amyloid beta 40 content (unknown origin) expressed in HEK293 cells expressing APP K595N/M596L Swedish mutant at 0.1 uM after 24 hrs by ELISA.
Test [4] shares this target. Put plainly: Reduction in amyloid beta 40 content (unknown origin) expressed in HEK293 cells expressing APP K595N/M596L Swedish mutant at 10 uM after 24 hrs by ELISA.

Active and inactive are the calls of the source. The calls are words filed in the database; no cut-off is given here.

Chain of Amyloid-beta precursor protein (Homo sapiens) (P05067 whole entry): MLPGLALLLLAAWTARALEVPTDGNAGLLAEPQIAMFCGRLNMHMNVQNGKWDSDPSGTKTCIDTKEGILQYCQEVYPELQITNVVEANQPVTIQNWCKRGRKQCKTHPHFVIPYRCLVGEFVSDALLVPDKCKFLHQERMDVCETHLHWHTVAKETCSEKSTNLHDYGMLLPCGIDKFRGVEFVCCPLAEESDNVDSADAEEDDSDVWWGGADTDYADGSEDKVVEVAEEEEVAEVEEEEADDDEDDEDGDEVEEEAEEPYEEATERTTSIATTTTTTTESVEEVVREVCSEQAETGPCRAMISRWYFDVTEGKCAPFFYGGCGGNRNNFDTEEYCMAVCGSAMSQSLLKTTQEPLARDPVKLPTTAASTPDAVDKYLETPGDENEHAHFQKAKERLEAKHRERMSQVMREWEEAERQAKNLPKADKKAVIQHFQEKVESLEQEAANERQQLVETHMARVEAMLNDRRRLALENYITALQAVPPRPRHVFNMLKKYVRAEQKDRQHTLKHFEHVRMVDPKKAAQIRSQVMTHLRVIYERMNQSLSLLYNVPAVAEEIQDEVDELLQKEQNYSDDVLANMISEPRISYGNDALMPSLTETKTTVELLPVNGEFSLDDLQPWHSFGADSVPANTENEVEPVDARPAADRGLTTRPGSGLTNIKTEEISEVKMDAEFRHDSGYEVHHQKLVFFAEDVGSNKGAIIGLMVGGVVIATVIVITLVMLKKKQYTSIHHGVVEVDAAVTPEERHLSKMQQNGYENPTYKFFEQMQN

A word on the inhibition: it is the change of the read-out against control, counted positive when it falls. Take `COc1ccc(Cl)cc1NC(=O)Oc1ccc(C[C@H]2C(=O)OC[C@@H]2Cc2ccc(OC)c(OC)c2)cc1OC`: in test [1], the inhibition worked out at 42.4%. Same read-out and setting: for `COc1ccc(C[C@H]2COC(=O)[C@@H]2Cc2ccc(OC(=O)NC3CCCCC3)c(OC)c2)cc1OC` the value was 35.4%; for `COc1ccc(C[C@H]2COC(=O)[C@@H]2Cc2ccc(OC(=O)N[C@H](C)c3ccccc3)c(OC)c2)cc1OC`, 45%; for `COc1ccc(C[C@H]2COC(=O)[C@@H]2Cc2ccc(OC(=O)Nc3ccc(C)c(Cl)c3)c(OC)c2)cc1OC`, 53.7%. Same read-out and setting: as for `COc1cccc(NC(=O)Oc2ccc(C[C@H]3C(=O)OC[C@@H]3Cc3ccc(OC)c(OC)c3)cc2OC)c1`, the figure is 52.8%. Same read-out and setting: for `COc1ccc(C[C@H]2COC(=O)[C@@H]2Cc2ccc(OC(=O)Nc3ccc(F)c(Cl)c3)c(OC)c2)cc1OC` the value was 60.5%.

In test [1], `COc1ccc(C[C@H]2COC(=O)[C@@H]2Cc2ccc(OC(=O)Nc3ccccc3Cl)c(OC)c2)cc1OC` had an inhibition of 58.3%. In turn, `COc1ccc(C[C@H]2COC(=O)[C@@H]2Cc2ccc(OC(=O)N(C)c3cccc(Cl)c3)c(OC)c2)cc1OC` gave an inhibition in test [1] of 41%. `COc1ccc(C[C@H]2COC(=O)[C@@H]2Cc2ccc(OC(=O)Nc3cccc(Cl)c3)c(OC)c2)cc1OC` returned an inhibition in test [1] of 78.7%. For the same molecule, the inhibition result in test [2] and in test [4] was “Active” in each case. Moreover, the inhibition entry in test [3] is “inactive”. As for `COc1ccc(NC(=O)Oc2ccc(C[C@H]3C(=O)OC[C@@H]3Cc3ccc(OC)c(OC)c3)cc2OC)cc1`, in test [1], the inhibition came out at 52.9%.

Regarding `COc1ccc(C[C@H]2COC(=O)[C@@H]2Cc2ccc(OC(=O)N(C)C)c(OC)c2)cc1OC`, in test [1], the inhibition stood at 28.5%. Same read-out and setting: as for `COc1ccc(C[C@H]2COC(=O)[C@@H]2Cc2ccc(N3CCCCC3)c(OC)c2)cc1OC`, the figure is 26.2%. For `CCNC(=O)Oc1ccc(C[C@H]2C(=O)OC[C@@H]2Cc2ccc(OC)c(OC)c2)cc1OC`, in test [1], the inhibition was determined as 36.3%. In test [1], `COc1ccc(C[C@H]2COC(=O)[C@@H]2Cc2ccc(OC(=O)NCc3ccccc3)c(OC)c2)cc1OC` returned an inhibition of 41.3%. For the molecule `CCCNC(=O)Oc1ccc(C[C@H]2C(=O)OC[C@@H]2Cc2ccc(OC)c(OC)c2)cc1OC`, the inhibition in test [1] came out at 20.3%.

In turn, `COc1ccccc1NC(=O)Oc1ccc(C[C@H]2C(=O)OC[C@@H]2Cc2ccc(OC)c(OC)c2)cc1OC` displayed an inhibition in test [1] of 61.7%. The same measure, in the same setting: for `COc1ccc(C[C@H]2COC(=O)[C@@H]2Cc2ccc(OC(=O)Nc3cccc(F)c3)c(OC)c2)cc1OC` the value was 61%. Consider `COc1ccc(C[C@H]2COC(=O)[C@@H]2Cc2ccc(OC(=O)Nc3cccc(C)c3)c(OC)c2)cc1OC`, for which the inhibition in test [1] is 55%.

In the case of `CNC(=O)Oc1ccc(C[C@H]2C(=O)OC[C@@H]2Cc2ccc(OC)c(OC)c2)cc1OC`, the inhibition in test [1] is 29.8%. `COc1ccc(C[C@H]2COC(=O)[C@@H]2Cc2ccc(OC(=O)Nc3ccc(Cl)cc3)c(OC)c2)cc1OC`: in test [1], the inhibition worked out at 66.9%. The inhibition entry in test [2] and in test [4] was “Active” each time. Besides, the inhibition result in test [3] was “inactive”. `COc1ccc(C[C@H]2COC(=O)[C@@H]2Cc2ccc(OC(=O)Nc3cccc([N+](=O)[O-])c3)c(OC)c2)cc1OC`: in test [1], the inhibition was 63%. With `COc1ccc(C[C@H]2COC(=O)[C@@H]2Cc2ccc(OC(=O)N[C@@H](C)c3ccccc3)c(OC)c2)cc1OC`, the inhibition in test [1] is 70.8%. Same read-out and setting: for `COc1ccc(C[C@H]2COC(=O)[C@@H]2Cc2ccc(OC(=O)Nc3cccc(Cl)c3C)c(OC)c2)cc1OC` the value was 62.8%; for `CCN(CC)C(=O)Oc1ccc(C[C@H]2C(=O)OC[C@@H]2Cc2ccc(OC)c(OC)c2)cc1OC`, 11.9%; for `COc1ccc(C[C@H]2COC(=O)[C@@H]2Cc2ccc(OC(=O)Nc3cccc(C#N)c3)c(OC)c2)cc1OC`, 56%. For the molecule `COc1ccc(C[C@H]2COC(=O)[C@@H]2Cc2ccc(OC(=O)NCCc3ccccc3)c(OC)c2)cc1OC`, in test [1], the inhibition amounted to 49%. Same read-out and setting: for `COc1ccc(C[C@H]2COC(=O)[C@@H]2Cc2ccc(OC(=O)Nc3ccccc3)c(OC)c2)cc1OC` the value was 43.5%. `COc1ccc(C[C@H]2COC(=O)[C@@H]2Cc2ccc(OC(=O)NC(C)C)c(OC)c2)cc1OC` yielded an inhibition in test [1] of 21.4%. On the same count and under the same terms, as for `COc1ccc(C[C@H]2COC(=O)[C@@H]2Cc2ccc(OC(=O)Nc3cc(Cl)cc(Cl)c3)c(OC)c2)cc1OC`, the figure is 56%; as for `COc1ccc(C[C@H]2COC(=O)[C@@H]2Cc2ccc(OC(=O)N(C)c3ccccc3)c(OC)c2)cc1OC`, 30%.

For `COc1cc(C[C@H]2C(=O)OC[C@@H]2Cc2ccc(OC)c(OC)c2)ccc1O`, the inhibition in test [1] came out at 44.6%. In addition, the inhibition entry in test [2] and in test [3] was “inactive” each time. Moreover, the inhibition entry in test [4] is “Active”.
